Reference: patent US7928103B2, “Compounds which modulate the CB2 receptor” (Boehringer Ingelheim International GmbH, priority 2006, dated 2011)

Assays:
human CB2R [1] = biological target: T1, human CB2R (Homo sapiens, UniProt P34972); assay: Human CB2 receptor binding (3H-CP55940 competition, SPA); design: purchased Perkin Elmer Life and Analytical Sciences; host or cells: HEK293 EBNA cells, stably transfected; settings: through the use of the above described assays (CB1/CB2 binding, CB2R and CB1R cAMP); assay not specified further
T1 sequence (P34972 whole entry): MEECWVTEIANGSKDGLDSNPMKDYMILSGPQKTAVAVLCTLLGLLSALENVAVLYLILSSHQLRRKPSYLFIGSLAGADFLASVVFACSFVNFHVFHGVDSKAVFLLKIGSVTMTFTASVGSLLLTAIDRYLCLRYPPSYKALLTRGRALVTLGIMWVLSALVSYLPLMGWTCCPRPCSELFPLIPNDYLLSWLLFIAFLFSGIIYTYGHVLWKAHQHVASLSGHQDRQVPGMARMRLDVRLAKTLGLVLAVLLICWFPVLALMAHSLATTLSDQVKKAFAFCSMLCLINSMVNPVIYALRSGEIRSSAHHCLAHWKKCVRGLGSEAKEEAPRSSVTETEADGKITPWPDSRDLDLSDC
Experimental: A. Human CB1 and CB2 Receptor Binding:
CB2 membranes were purchased and made from HEK293 EBNA cells stably transfected with human CB2 receptor cDNA (Perkin Elmer Life and Analytical Sciences). CB1 membranes were isolated from HEK cells stably co-transfected with human CB1 receptor and Gα16 cDNA's. The membrane preparation was bound to scintillation beads (Ysi-Poly-L-lysine SPA beads, GE Healthcare) for 4 hours at room temperature in assay buffer containing 50 mM Tris, pH 7.5, 2.5 mM EDTA, 5 mM MgCl2, 0.8% fatty acid free Bovine Serum Albumin. Unbound membrane was removed by washing in assay buffer. Membrane-bead mixture was added to 96-well assay plates in the amounts of 15 ug membrane per well (CB2) or 2.5 ug per well (CB1) and 1 mg SPA bead per well. Compounds were added to the membrane-bead mixture in dose-response concentrations ranging from 1×10^−5 M to 1×10^−10 M with 0.25% DMSO, final. The competition reaction was initiated with the addition of ^3H-CP55940 (Perkin Elmer Life and Analytical Sciences) at a final concentration of 1.5 nM (CB2) or 2.5 nM (CB1). The reaction was incubated at room temperature for 18 hours and read on TopCount NXT plate reader. Total and non-specific binding was determined in the absence and presence of 1.25 uM Win 55212 (Sigma). IC50 values for each compound were calculated as the concentration of compound that inhibits the specific binding of the radioactively labeled ligand to the receptor by 50% using the XLFit 4.1 four parameter logistic model. IC50 values were converted to inhibition constant (Ki) values using Cheng-Prusoff equation.

human CB2R [2] = biological target: T1, human CB2R; assay: CB2R mediated modulation of cAMP synthesis; assay type: cell-based; design: host or cells: CHO cells; settings: agonists decrease forskolin induced production of cAMP; CHO cells expressing human CB2R
Experimental: B. CB2R Mediated Modulation of cAMP Synthesis:
Compounds of the invention were evaluated for their CB2 agonist or inverse agonistic activity in accordance with the following experimental method.
CHO cells expressing human CB2R (Euroscreen) were plated at a density of 5000 cells per well in 384 well plates and incubated overnight at 37° C. After removing the media, the cells were treated with test compounds diluted in stimulation buffer containing 1 mM IBMX, 0.25% BSA and 10 uM Forskolin. The assay was incubated for 30 minutes at 37° C. Cells were lysed and the cAMP concentration was measured using DiscoverX-XS cAMP kit, following the manufacturer's protocol. In this setting, agonists will decrease forskolin induced production of cAMP while inverse agonists will further increase forskolin induced production of cAMP. EC50 of agonists were calculated as follows. The maximal amount of cAMP produced by forskolin compared to the level of cAMP inhibited by 1 uM CP55940 is defined as 100%. The EC50 value of each test compound was determined as the concentration at which 50% of the forskolin-stimulated cAMP synthesis was inhibited. Data was analyzed using a four-parameter logistic model. (Model 205 of XLfit 4.0).

Compound | found to exhibit activity (human CB2R [1]) | found to exhibit agonistic activity (human CB2R [2])
c1ccc([C@H]2CN(Cc3ccc(Nc4cccnc4)nc3)CCO2)cc1 [Example 9, [5-((S)-2-Phenyl-morpholin-4-ylmethyl)-pyridin-2-yl]-pyridin-3-yl-amine] | exhibit activity | exhibit agonistic activity
FC(F)(F)Oc1ccc(Nc2ccc(CN3CCO[C@@H](c4ccccc4)C3)cn2)cc1 [Example 4, [5-((S)-2-Phenyl-morpholin-4-ylmethyl)-pyridin-2-yl]-(4-trifluoromethoxy-phenyl)-amine] | exhibit activity | exhibit agonistic activity
c1ccc([C@H]2CN(Cc3ccc(Nc4cccc5ccccc45)nc3)CCO2)cc1 [Example 6, Naphthalen-1-yl-[5-((S)-2-phenyl-morpholin-4-ylmethyl)-pyridin-2-yl]-amine] | exhibit activity | exhibit agonistic activity
c1ccc(Oc2ccc(CN3CCO[C@@H](c4ccccc4)C3)cc2)cc1 [Example 34, (S)-4-(4-Phenoxy-benzyl)-2-phenyl-morpholine] | exhibit activity | exhibit agonistic activity
c1ccc([C@H]2CN(Cc3ccc(Nc4ccncn4)nc3)CCO2)cc1 [Example 8, [5-((S)-2-Phenyl-morpholin-4-ylmethyl)-pyridin-2-yl]-pyrimidin-4-yl-amine] | exhibit activity | exhibit agonistic activity
CCc1ccc(Nc2ccc(CN3CCO[C@@H](c4ccccc4)C3)cn2)cc1 [Example 5, (4-Ethyl-phenyl)-[5-((S)-2-phenyl-morpholin-4-ylmethyl)-pyridin-2-yl]-amine] | exhibit activity | exhibit agonistic activity
c1ccc(Nc2ccc(CN3CCO[C@@H](c4ccccc4)C3)cn2)cc1 [Example 15, Phenyl-[5-((S)-2-phenyl-morpholin-4-ylmethyl)-pyridin-2-yl]-amine] | exhibit activity | exhibit agonistic activity
c1ccc([C@H]2CN(Cc3ccc(Nc4cccc5cccnc45)nc3)CCO2)cc1 [Example 13, [5-((S)-2-Phenyl-morpholin-4-ylmethyl)-pyridin-2-yl]-quinolin-8-yl-amine] | exhibit activity | exhibit agonistic activity
c1ccc([C@H]2CN(Cc3ccc(Nc4ccc5ccccc5c4)nc3)CCO2)cc1 [Example 7, Naphthalen-2-yl-[5-((S)-2-phenyl-morpholin-4-ylmethyl)-pyridin-2-yl]-amine] | exhibit activity | exhibit agonistic activity
COc1ccc(Nc2ccc(CN3CCO[C@@H](c4ccccc4)C3)cn2)cc1 [Example 2, (4-Methoxy-phenyl)-[5-((S)-2-phenyl-morpholin-4-ylmethyl)-pyridin-2-yl]-amine] | exhibit activity | exhibit agonistic activity
c1ccc([C@H]2CN(Cc3ccc(Nc4ccncc4)nc3)CCO2)cc1 [Example 10, [5-((S)-2-Phenyl-morpholin-4-ylmethyl)-pyridin-2-yl]-pyridin-4-yl-amine] | exhibit activity | exhibit agonistic activity
CC(C)(C)c1cc(Nc2ccc(CN3CCO[C@@H](c4ccccc4)C3)cn2)no1 [Example 1, (5-tert-Butyl-isoxazol-3-yl)-[5-((S)-2-phenyl-morpholin-4-ylmethyl)-pyridin-2-yl]-amine] | exhibit activity | exhibit agonistic activity
c1ccc([C@H]2CN(Cc3ccc(Nc4cccc5ncccc45)nc3)CCO2)cc1 [Example 12, [5-((S)-2-Phenyl-morpholin-4-ylmethyl)-pyridin-2-yl]-quinolin-5-yl-amine] | exhibit activity | exhibit agonistic activity
Fc1ccccc1Nc1ccc(CN2CCO[C@@H](c3ccccc3)C2)cn1 [Example 16, (2-Fluoro-phenyl)-[5-((S)-2-phenyl-morpholin-4-ylmethyl)-pyridin-2-yl]-amine] | exhibit activity | exhibit agonistic activity

Now from value to compound:

found to exhibit activity (human CB2R [1]) | found to exhibit agonistic activity (human CB2R [2]) | Compound
exhibit activity | exhibit agonistic activity | CC(C)c1ccccc1Nc1ccc(CN2CCO[C@@H](c3ccccc3)C2)cn1 [Example 23, (2-Isopropyl-phenyl)-[5-((S)-2-phenyl-morpholin-4-ylmethyl)-pyridin-2-yl]-amine]
exhibit activity | exhibit agonistic activity | Clc1ccc(Nc2ccc(CN3CCO[C@@H](c4ccccc4)C3)cn2)cc1 [Example 30, (4-Chloro-phenyl)-[5-((S)-2-phenyl-morpholin-4-ylmethyl)-pyridin-2-yl]-amine]
exhibit activity | exhibit agonistic activity | Clc1ccccc1Nc1ccc(CN2CCO[C@@H](c3ccccc3)C2)cn1 [Example 17, (2-Chloro-phenyl)-[5-((S)-2-phenyl-morpholin-4-ylmethyl)-pyridin-2-yl]-amine]
exhibit activity | exhibit agonistic activity | CCOc1ccccc1Nc1ccc(CN2CCO[C@@H](c3ccccc3)C2)cn1 [Example 22, (2-Ethoxy-phenyl)-[5-((S)-2-phenyl-morpholin-4-ylmethyl)-pyridin-2-yl]-amine]
exhibit activity | exhibit agonistic activity | Fc1ccc(Nc2ccc(CN3CCO[C@@H](c4ccccc4)C3)cn2)cc1 [Example 29, (4-Fluoro-phenyl)-[5-((S)-2-phenyl-morpholin-4-ylmethyl)-pyridin-2-yl]-amine]
exhibit activity | exhibit agonistic activity | Fc1cccc(Nc2ccc(CN3CCO[C@@H](c4ccccc4)C3)cn2)c1 [Example 25, (3-Fluoro-phenyl)-[5-((S)-2-phenyl-morpholin-4-ylmethyl)-pyridin-2-yl]-amine]
exhibit activity | exhibit agonistic activity | COc1ccccc1Nc1ccc(CN2CCO[C@@H](c3ccccc3)C2)cn1 [Example 21, (2-Methoxy-phenyl)-[5-((S)-2-phenyl-morpholin-4-ylmethyl)-pyridin-2-yl]-amine]
exhibit activity | exhibit agonistic activity | Clc1cccc(Nc2ccc(CN3CCO[C@@H](c4ccccc4)C3)cn2)c1 [Example 26, (3-Chloro-phenyl)-[5-((S)-2-phenyl-morpholin-4-ylmethyl)-pyridin-2-yl]-amine]
exhibit activity | exhibit agonistic activity | Cc1cccc(Nc2ccc(CN3CCO[C@@H](c4ccccc4)C3)cn2)c1 [Example 28, [5-((S)-2-Phenyl-morpholin-4-ylmethyl)-pyridin-2-yl]-m-tolyl-amine]
exhibit activity | exhibit agonistic activity | FC(F)(F)Oc1ccccc1Nc1ccc(CN2CCO[C@@H](c3ccccc3)C2)cn1 [Example 32, [5-((S)-2-Phenyl-morpholin-4-ylmethyl)-pyridin-2-yl]-(2-trifluoromethoxy-phenyl)-amine]
exhibit activity | exhibit agonistic activity | Clc1ccc(Nc2ccc(CN3CCO[C@@H](c4ccccc4)C3)cn2)c(Cl)c1 [Example 19, (2,4-Dichloro-phenyl)-[5-((S)-2-phenyl-morpholin-4-ylmethyl)-pyridin-2-yl]-amine]
exhibit activity | exhibit agonistic activity | Cc1ccc(Nc2ccc(CN3CCO[C@@H](c4ccccc4)C3)cn2)cc1 [Example 31, [5-((S)-2-Phenyl-morpholin-4-ylmethyl)-pyridin-2-yl]-p-tolyl-amine]
